The test system of experiment [1] is Staphylococcus epidermidis (DSM20042). The experiment is described as follows: Bactericidal activity of laccase/enhancer systems, Malthus conductance enumeration of surviving cells. Format: cell-based. The conditions noted are these: for Bactericidal activity (log(cfu/ml)=the logarithm to the number of killed cells): enhancer 0.1 mM with rPpL or rMtL 3 mg/L, 20 min, approx. 10^4 cfu/ml; for Bactericidal activity (log(cfu/ml)=the logarithm to the number of killed cells) / bactericidal activity when combined with laccase / bactericidal activity without laccase / bactericidal activity when combined with Polyporus laccase: pH 6, 40° C.; for bactericidal activity when combined with laccase: laccase (rMtL or rPpL) 3 mg/L; for bactericidal activity when combined with laccase / bactericidal activity without laccase / bactericidal activity when combined with Polyporus laccase: 20 minutes; for bactericidal activity without laccase: no laccase; for bactericidal activity when combined with Polyporus laccase: rPpL 3 mg/L. As for the experimental part: Bactericidal activity was evaluated in 0.05 M MES-buffer (2-[N-morpholino]ethanesulfonic acid) (pH 6), which were flushed with air for 5 min before filter sterilisation. The bactericidal activity was determined against Pseudomonas aeruginosa (ATCC10145) and Staphylococcus epidermidis (DSM20042). Cells were grown in Tryptone Soya Broth (Oxoid CM129) at 30° C. for 24 h and diluted in the MES-buffer to a final cell concentration of approximately 10^4 cfu/ml. The cell suspensions were mixed with laccase (3 mg/L) and enhancer (0.1 mM) for 20 min at 40° C. The bactericidal activity was determined by incubation in Malthus. Detection times measured by the Malthus instrument were converted to cfu/ml by a calibration curve. Either direct or indirect Malthus measurements were used when enumerating total survival cells (Malthus Flexi M2060, Malthus Instrument Limited). By the direct measurements, the cell metabolism was determined by conductance measurements in the growth substrate. By the indirect measurements, 3 ml of growth medium was transferred to the outer chamber of the indirect Malthus cells, and 0.5 ml of sterile KOH (0.1 M) was transferred to the inner chamber. The cell suspensions were after enzyme treatment transferred to the outer chamber of the Malthus cell. As cells are growing in the outer chamber they produce CO2 which will dissolve in the KOH in the inner chamber and thereby change the conductance of the KOH. The amount of CO2 formed by the respiring cells surviving the enzyme treatment was used for estimating the number of viable cells. When the conductance change is measurable by the Malthus, a detection time (dt) will be recorded. The dt-s were converted to colony counts by use of a calibration curve relating cfu/ml to dt (Johansen et al. 1995. Journal of Applied Bacteriology 78:297-303, Johansen et al. 1997, Applied and Environmental Microbiology 63:3724-3728). […]

In experiment [2] the test system is Pseudomonas aeruginosa (ATCC10145). The description is as above. Format: cell-based. The note with it: for Bactericidal activity (log(cfu/ml)=the logarithm to the number of killed cells): enhancer 0.1 mM with rPpL or rMtL 3 mg/L, 20 min, approx. 10^4 cfu/ml. As for the experimental part:
Bactericidal activity was evaluated in 0.05 M MES-buffer (2-[N-morpholino]ethanesulfonic acid) (pH 6), which were flushed with air for 5 min before filter sterilisation. The bactericidal activity was determined against Pseudomonas aeruginosa (ATCC10145) and Staphylococcus epidermidis (DSM20042). Cells were grown in Tryptone Soya Broth (Oxoid CM129) at 30° C. for 24 h and diluted in the MES-buffer to a final cell concentration of approximately 10^4 cfu/ml. The cell suspensions were mixed with laccase (3 mg/L) and enhancer (0.1 mM) for 20 min at 40° C. The bactericidal activity was determined by incubation in Malthus. Detection times measured by the Malthus instrument were converted to cfu/ml by a calibration curve. Either direct or indirect Malthus measurements were used when enumerating total survival cells (Malthus Flexi M2060, Malthus Instrument Limited). By the direct measurements, the cell metabolism was determined by conductance measurements in the growth substrate. By the indirect measurements, 3 ml of growth medium was transferred to the outer chamber of the indirect Malthus cells, and 0.5 ml of sterile KOH (0.1 M) was transferred to the inner chamber. The cell suspensions were after enzyme treatment transferred to the outer chamber of the Malthus cell. As cells are growing in the outer chamber they produce CO2 which will dissolve in the KOH in the inner chamber and thereby change the conductance of the KOH. The amount of CO2 formed by the respiring cells surviving the enzyme treatment was used for estimating the number of viable cells. When the conductance change is measurable by the Malthus, a detection time (dt) will be recorded. The dt-s were converted to colony counts by use of a calibration curve relating cfu/ml to dt (Johansen et al. 1995. Journal of Applied Bacteriology 78:297-303, Johansen et al. 1997, Applied and Environmental Microbiology 63:3724-3728).
Antimicrobial activity (i.e. bactericidal activity) of Myceliophthera laccase (rMtL) and methylsyringate (MeS) was determined using a 32 factorial design at pH 6 at 40° C. in MES-buffer as described in example 1, however, a higher cell concentration was used (10^7-10^8 cfu/ml). Tested rMtL levels was 0-2,5-5 mg/L and MeS levels was 0-5-10 mM.
Antimicrobial activity (i.e. bactericidal activity) of Myceliophthera laccase (rMtL) and Polyporus laccase (rPpL) was determined against Staphylococcus epidermidis at pH 6 in MES-buffer as described in example 1, the laccases was used in the concentration of 3 mg/L. Acetosyringon, methylsyringate, ethylsyringate, butylsyringate and laurylsyringate were evaluated as electron-donors in the concentration of 0.2 mM.
Antimicrobial activity of laccases with two enhancers was determined against Pseudomonas aeruginosa (ATCC 10145) and Staphylococcus epidermidis (DSM 20042) at pH 6 as described in example 1. Methylsyringate and acetosyringon was used as enhancers and the laccase was rPpL (1 mg/L) and the antimicrobial activity was determined by use of a 32 factorial experimental design.

Turning to `O=C(O)CCN1c2ccccc2Sc2ccccc21` [PPT, reference compound], the “Bactericidal activity (log(cfu/ml)=the logarithm to the number of killed cells)” value is listed as “None of the other enhancers resulted in bactericidal activity” in experiment [1] and “None of the other enhancers resulted in bactericidal activity” in experiment [2] (pH 6, 40° C.).

For the compound `COc1cc(C(C)=O)cc(OC)c1O` [acetosyringon], in experiment [1] (enhancer 0.2 mM), the “bactericidal activity when combined with laccase” value is listed as “significantly increased”, the “bactericidal activity without laccase” value is recorded as “did also show bactericidal activity” and the “bactericidal activity when combined with Polyporus laccase” value was found to be 100%. In experiment [1] (enhancer 0.2 mM, rMtL 3 mg/L, pH 6, compared to Polyporus laccase and to the other syringate compounds), the “bactericidal activity with Myceliophthera laccase” value was “decreased”. In addition, in experiment [2] (different syringate-compounds with laccase), the “bactericidal activity, comparison of the syringate-compounds as enhancers” value is “most bactericidal enhancer”. In experiment [2] (with rPpL (1 mg/L), pH 6, 40° C.), the cell reduction entry is recorded as “approximately 1.5 log units”.

Take `CCCCOC(=O)c1cc(OC)c(O)c(OC)c1` [butylsyringate]: the “bactericidal activity when combined with Polyporus laccase” value in experiment [1] (enhancer 0.2 mM) is on record as 100%.

As for `O=C(/C=C/c1ccc(O)c(O)c1)O[C@@H]1C[C@](O)(C(=O)O)C[C@@H](O)[C@H]1O` [chlorogenic acid, reference compound], the “Bactericidal activity (log(cfu/ml)=the logarithm to the number of killed cells)” value is reported as “None of the other enhancers resulted in bactericidal activity” in experiment [1] and “None of the other enhancers resulted in bactericidal activity” in experiment [2] (pH 6, 40° C.).

`O=C(O)C=Cc1ccccc1` [cinnamic acid, reference compound]: the “Bactericidal activity (log(cfu/ml)=the logarithm to the number of killed cells)” value in experiment [1] is on record as “None of the other enhancers resulted in bactericidal activity”; in experiment [2] (pH 6, 40° C.), “None of the other enhancers resulted in bactericidal activity”.

With `CCOC(=O)c1cc(OC)c(O)c(OC)c1` [ethylsyringate], the “bactericidal activity when combined with Polyporus laccase” value in experiment [1] (enhancer 0.2 mM) is on record as 100%.

Regarding `CCCCCCCCCCCCOC(=O)c1cc(OC)c(O)c(OC)c1` [laurylsyringate], in experiment [1] (enhancer 0.2 mM), the “bactericidal activity when combined with laccase” value is listed as “significantly increased” and the “bactericidal activity without laccase” value is given as “did also show bactericidal activity”.

For the compound `COc1cc(C=O)cc(OC)c1O` [syringaldehyde], the “Bactericidal activity (log(cfu/ml)=the logarithm to the number of killed cells)” value in experiment [1] was “None of the other enhancers resulted in bactericidal activity”; in experiment [2] (pH 6, 40° C.), “None of the other enhancers resulted in bactericidal activity”.

The values are drawn from patent US20010025018A1, “Antimicrobial activity of laccases” (priority 1997, published 2001).
